Several values for one entry are separate records, joined by “and”; a condition that tells them apart may be missing. Identical values can stand only once. Like-named read-outs stand apart in the source and are kept apart here.
What was measured:
Eg.TRPMPZQ = Eg.TRPMPZQ (Echinococcus granulosus, UniProt W6UVV9); test: cell-based; settings: HEK293, Ca2+ reporter, mean ± standard deviation; read-out: Bmax, Eg.TRPMPZQ activation
[1] = tested on: HepG2 hepatic epithelial cells; test: in vitro
Procedure: (§1) Next, we conducted a more detailed investigation by performing dose–response assays with each compound on HepG2 hepatic epithelial cells, as the liver is one of the major organs affected in intestinal schistosomiasis.
(§2) More details are provided in the Supporting Information.
(§3) Adult worm ex-vivo high-content assay
(§4) Male and female worms were placed in 96-well microplates (one worm per well) and incubated […]
(§5) to 72 hours. Brightfield timelapse images (100 images, 0.3-second intervals) were captured from each well before, immediately after, and every 24 hours following compound addition using an ImageXpress Micro Confocal High Content System equipped with a 2x objective. Image analysis was performed through a custom pipeline in CellProfiler software (v. 4.2.1, Windows OS).57 During analysis, the area of each worm and its displacement between consecutive image captures (i.e., images taken at successive time points) were measured using the parameters “Area” and “False Negative Rate” from the MeasureObjectSizeShape and MeasureObjectOverlap modules, respectively. These measurements were then modeled by a multilevel generalized linear statistical model. The effects of the experimental treatments on parasite motility were estimated with the integrated nested Laplace approximation (INLA) method, available in the INLA package of R (https://www.r-inla.org). The half-maximal inhibitory concentration (EC50) of each compound was calculated based on the worms' estimated motility using the […] 4-parameter logistic equation in GraphPad Prism version 9.0.0 for Windows (GraphPad Software, Boston, MA, USA; www.graphpad.com). […]
(§6) either at a fixed concentration (10 µM) or across a range of concentrations (0.0001–300 µM), or with DMSO as a negative control. Two hours before the end of the experiment (t0), a resazurin solution (final concentration: 0.01 mg/mL) was added to each well and the first fluorescence […]
(§7) reader. At the end of the incubation (t1), a second reading was performed. The fluorescence attributed solely to resorufin was measured by subtracting the fluorescence readings at t0 from those at t1. The results were expressed as percentual cell viability considering negative control

in vitro = settings: human, HepG2 cytotoxicity (CC50)
Procedure: as §1, §2, §3, §4, §5, §6, §7

Sm.TRPMMCLZ = test: Ca2+ reporter (FLIPR) activation assay, Sm.TRPMMCLZ in HEK293 cells; assay type: cell-based, Schistosoma mansoni; settings: at the tested concentrations, data not shown
Procedure: (§8) Finally, selectivity for Sm.TRPMPZQ was assessed by profiling responses on the F. hepatica (Fh.TRPMPZQ) and E. granulosus (Eg.TRPMPZQ) TRPMPZQ orthologs, as well as the schistosome TRPM paralog Sm.TRPMMCLZ, a distinct TRPM channel activated by meclonazepam. Meclonazepam is an anthelmintic benzodiazepine known for its toxicity to juvenile schistosome worms.
(§9) The Ca^2+ reporter assay was performed using a Fluorescence Imaging Plate Reader (FLIPR) system, as described in the Supporting Information. […]
(§10) The half-maximal inhibitory
(§11) Windows (GraphPad Software, Boston, MA, USA; www.graphpad.com). […]
(§12) with DMSO as a negative control. […]
(§13) reader. […] The fluorescence
(§14) Untransfected HEK293 cells were used as a control.
(§15) 10% fetal bovine serum (FBS). […]
(§16) atmosphere containing 5% CO₂. Following incubation, the growth medium was removed and […]
(§17) buffer containing 2.5 mM probenecid in HBSS (with Ca²⁺ and Mg²⁺), 20 mM HEPES, 0.3% BSA (Sigma, A7030), and 0.03% L-ascorbic acid (Sigma). Cells were incubated for 40 minutes at 37 °C and subsequently for 20 minutes at room temperature. A total of seven PZQ derivatives were tested, using racemic PZQ included as a positive control on each assay plate. Drug dilutions were prepared in assay buffer without dye and probenecid and dispensed into separate flat-bottom 384-well plates. Calcium flux measurements were performed at room temperature using a […]
(§18) instrument (Molecular Devices). Baseline fluorescence was recorded for 20 seconds, followed by the addition of 5 µL of each drug solution, after which fluorescence was measured continuously for 250 seconds. […]

Sm.TRPMPZQ (wild-type) = Sm.TRPMPZQ (wild-type) (Schistosoma mansoni, UniProt A0A5K4F0X5); test: Ca2+ reporter (FLIPR) activation assay, wild-type Sm.TRPMPZQ in HEK293 cells; assay type: cell-based
Chain of Sm.TRPMPZQ (wild-type) (A0A5K4F0X5 entry or part of it): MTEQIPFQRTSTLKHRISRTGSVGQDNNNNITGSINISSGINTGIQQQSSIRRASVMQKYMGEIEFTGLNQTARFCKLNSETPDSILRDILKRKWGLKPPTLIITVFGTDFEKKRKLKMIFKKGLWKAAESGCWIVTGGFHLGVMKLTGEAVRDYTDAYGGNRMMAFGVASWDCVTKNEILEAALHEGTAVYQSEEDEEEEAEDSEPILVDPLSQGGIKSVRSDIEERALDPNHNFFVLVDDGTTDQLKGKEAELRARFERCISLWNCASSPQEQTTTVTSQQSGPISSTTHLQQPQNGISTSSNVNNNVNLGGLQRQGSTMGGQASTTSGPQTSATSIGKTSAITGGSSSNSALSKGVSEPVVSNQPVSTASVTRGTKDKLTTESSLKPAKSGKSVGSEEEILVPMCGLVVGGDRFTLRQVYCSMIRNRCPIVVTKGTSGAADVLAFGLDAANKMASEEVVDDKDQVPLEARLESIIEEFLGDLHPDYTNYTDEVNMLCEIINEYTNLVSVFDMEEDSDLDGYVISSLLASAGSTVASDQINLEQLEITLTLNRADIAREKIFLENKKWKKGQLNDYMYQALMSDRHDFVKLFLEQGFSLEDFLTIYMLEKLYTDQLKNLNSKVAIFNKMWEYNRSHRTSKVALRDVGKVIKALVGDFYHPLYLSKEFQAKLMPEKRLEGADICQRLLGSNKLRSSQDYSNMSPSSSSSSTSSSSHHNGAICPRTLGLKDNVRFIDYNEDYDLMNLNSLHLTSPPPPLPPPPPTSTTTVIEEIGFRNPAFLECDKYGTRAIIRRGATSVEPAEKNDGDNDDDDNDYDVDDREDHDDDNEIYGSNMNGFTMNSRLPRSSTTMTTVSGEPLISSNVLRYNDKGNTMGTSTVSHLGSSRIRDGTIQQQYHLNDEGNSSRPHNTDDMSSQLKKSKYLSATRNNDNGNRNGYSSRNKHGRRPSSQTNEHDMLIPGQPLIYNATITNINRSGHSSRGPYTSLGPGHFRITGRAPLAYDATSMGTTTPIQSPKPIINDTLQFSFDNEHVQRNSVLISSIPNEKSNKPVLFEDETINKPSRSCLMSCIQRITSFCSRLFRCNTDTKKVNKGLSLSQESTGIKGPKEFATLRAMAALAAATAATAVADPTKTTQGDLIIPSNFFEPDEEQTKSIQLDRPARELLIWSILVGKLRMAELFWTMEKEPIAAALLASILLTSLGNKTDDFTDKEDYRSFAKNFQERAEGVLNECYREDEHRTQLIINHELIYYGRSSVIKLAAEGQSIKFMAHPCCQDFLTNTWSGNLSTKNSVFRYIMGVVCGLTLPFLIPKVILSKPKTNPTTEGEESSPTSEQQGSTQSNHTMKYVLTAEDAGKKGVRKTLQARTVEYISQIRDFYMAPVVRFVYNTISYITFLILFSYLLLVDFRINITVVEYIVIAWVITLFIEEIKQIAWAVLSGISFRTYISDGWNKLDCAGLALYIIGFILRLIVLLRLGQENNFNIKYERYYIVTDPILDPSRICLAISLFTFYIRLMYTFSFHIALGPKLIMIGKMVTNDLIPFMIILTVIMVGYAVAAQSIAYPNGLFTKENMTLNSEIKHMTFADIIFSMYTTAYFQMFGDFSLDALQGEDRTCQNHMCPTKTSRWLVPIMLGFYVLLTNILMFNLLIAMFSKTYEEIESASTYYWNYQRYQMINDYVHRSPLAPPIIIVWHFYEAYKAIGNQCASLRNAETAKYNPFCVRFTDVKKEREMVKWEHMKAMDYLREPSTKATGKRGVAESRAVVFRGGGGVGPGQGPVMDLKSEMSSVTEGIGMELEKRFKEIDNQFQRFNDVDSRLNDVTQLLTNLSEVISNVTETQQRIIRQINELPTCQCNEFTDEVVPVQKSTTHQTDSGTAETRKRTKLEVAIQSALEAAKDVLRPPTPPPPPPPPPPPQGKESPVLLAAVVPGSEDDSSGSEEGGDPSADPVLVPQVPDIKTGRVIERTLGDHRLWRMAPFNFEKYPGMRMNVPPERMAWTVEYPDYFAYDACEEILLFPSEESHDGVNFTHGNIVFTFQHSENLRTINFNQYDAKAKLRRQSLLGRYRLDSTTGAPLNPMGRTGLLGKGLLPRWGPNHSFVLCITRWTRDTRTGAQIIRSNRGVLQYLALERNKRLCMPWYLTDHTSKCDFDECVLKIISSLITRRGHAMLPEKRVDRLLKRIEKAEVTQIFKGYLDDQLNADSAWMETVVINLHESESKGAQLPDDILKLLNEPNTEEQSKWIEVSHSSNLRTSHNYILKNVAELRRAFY
In short: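 Wild-type Sm.TRPMPZQ in HEK293 cells, with untransfected HEK293 as control. Cells dye-loaded in HBSS/20 mM HEPES buffer with 2.5 mM probenecid, 0.3% BSA and 0.03% ascorbic acid (40 min 37 °C, then 20 min RT). FLIPR Ca²⁺ flux at room temperature: 20 s baseline, then drug addition, then 250 s recording.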

juvenile schistosomes = test: Microscopy analysis of juvenile morphology and motility (viability score 0-3); settings: 10 μM, 72 h, Table S1
[2] = tested on: adult schistosomes (male and female worms); test: Adult worm ex vivo high-content image-based motility assay; assay type: cell-based, Schistosoma mansoni
Fh.TRPMPZQ = test: Ca2+ reporter (FLIPR) activation assay, Fh.TRPMPZQ in HEK293 cells; assay type: cell-based, Fasciola hepatica; settings: at the tested concentrations, data not shown
Procedure: as §8, §9, §10, §11, §12, §13, §14, §15, §16, §17, §18

Chain of Eg.TRPMPZQ (W6UVV9 entry or part of it): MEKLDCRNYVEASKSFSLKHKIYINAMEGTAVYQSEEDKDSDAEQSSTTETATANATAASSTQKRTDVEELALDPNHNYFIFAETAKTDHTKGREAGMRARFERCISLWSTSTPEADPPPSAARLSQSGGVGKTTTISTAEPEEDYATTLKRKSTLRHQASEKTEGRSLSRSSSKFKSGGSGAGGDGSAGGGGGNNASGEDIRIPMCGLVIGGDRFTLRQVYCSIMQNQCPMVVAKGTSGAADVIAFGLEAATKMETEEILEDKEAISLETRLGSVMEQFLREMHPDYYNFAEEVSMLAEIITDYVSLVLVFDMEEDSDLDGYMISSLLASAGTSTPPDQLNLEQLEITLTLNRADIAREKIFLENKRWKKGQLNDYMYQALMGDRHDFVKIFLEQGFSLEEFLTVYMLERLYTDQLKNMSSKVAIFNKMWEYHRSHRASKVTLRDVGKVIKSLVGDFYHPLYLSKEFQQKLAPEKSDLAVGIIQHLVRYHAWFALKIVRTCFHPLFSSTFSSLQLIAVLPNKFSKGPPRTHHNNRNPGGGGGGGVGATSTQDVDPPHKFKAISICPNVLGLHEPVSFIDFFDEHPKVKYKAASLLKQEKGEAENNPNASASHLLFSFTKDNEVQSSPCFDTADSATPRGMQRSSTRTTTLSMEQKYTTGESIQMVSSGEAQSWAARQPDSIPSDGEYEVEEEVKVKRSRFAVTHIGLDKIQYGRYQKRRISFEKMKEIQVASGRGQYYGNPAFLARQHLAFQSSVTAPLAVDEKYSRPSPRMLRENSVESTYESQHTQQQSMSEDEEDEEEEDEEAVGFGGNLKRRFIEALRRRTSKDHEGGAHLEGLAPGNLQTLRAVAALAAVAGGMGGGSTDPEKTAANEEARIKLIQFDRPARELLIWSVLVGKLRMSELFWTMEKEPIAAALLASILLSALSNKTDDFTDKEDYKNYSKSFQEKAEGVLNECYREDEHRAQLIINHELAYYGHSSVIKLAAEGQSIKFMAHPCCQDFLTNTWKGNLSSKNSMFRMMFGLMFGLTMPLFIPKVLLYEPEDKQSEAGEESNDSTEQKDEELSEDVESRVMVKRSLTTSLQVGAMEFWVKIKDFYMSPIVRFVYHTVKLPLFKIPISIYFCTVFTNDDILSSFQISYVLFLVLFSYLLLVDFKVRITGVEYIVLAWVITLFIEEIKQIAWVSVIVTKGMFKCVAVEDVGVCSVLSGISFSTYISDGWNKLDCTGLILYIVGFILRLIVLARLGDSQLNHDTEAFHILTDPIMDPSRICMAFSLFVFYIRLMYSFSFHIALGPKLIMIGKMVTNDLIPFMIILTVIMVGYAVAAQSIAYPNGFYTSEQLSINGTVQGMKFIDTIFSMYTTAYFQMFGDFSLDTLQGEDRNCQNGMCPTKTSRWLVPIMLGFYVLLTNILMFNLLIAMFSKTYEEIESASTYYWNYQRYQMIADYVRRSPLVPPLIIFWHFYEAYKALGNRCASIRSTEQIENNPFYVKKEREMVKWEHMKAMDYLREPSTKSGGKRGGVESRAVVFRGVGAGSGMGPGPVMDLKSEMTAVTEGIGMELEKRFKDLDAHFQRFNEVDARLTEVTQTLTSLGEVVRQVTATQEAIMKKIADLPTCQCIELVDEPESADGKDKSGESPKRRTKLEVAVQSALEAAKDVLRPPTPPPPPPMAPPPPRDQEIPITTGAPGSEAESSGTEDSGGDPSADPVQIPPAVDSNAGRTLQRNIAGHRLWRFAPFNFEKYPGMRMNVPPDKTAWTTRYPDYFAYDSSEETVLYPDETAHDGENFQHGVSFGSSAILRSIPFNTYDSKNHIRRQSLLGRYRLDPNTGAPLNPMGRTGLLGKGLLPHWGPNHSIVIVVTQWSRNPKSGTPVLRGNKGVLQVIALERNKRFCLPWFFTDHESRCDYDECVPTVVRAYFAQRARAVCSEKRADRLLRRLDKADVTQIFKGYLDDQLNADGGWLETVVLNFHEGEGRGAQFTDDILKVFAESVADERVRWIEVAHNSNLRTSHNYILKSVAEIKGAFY

O=C(C1CCCCC1)N1CC(=O)N2CCc3ccc([N+](=O)[O-])cc3C2C1 (centres unmarked) [Compound 2, 9-NO2–PZQ]
Emax (Eg.TRPMPZQ): 114 ± 10.5%
Selectivity Index (CC50/EC50), Female ([1]; HepG2 CC50 / female worm motility EC50, 48 h): 12.7 and 13
Selectivity Index (CC50/EC50), Male ([1]; HepG2 CC50 / male worm motility EC50, 48 h): 23.1 and 23
CC50 at 48 h (in vitro): 368 µM
CC50 at 48 h (in vitro; values of independent experiments): 354 µM
activation of Sm.TRPMMCLZ (Sm.TRPMMCLZ): did not activate
EC50 (Sm.TRPMPZQ (wild-type); 0.001 to 100 μM): 13.5 ± 0.49 µM
Emax (Sm.TRPMPZQ (wild-type); read-out: Bmax, wild-type Sm.TRPMPZQ activation): 66.6 ± 1.98%
number of juvenile worms with viability score 0 (juvenile schistosomes): 70
number of juvenile worms with viability score 1 (juvenile schistosomes): 3
number of juvenile worms with viability score 2 (juvenile schistosomes): 7
number of juvenile worms with viability score 3 (juvenile schistosomes): 74
EC50 ([2]; Schistosoma mansoni, 0 h, female adult worms, 0 h (immediately after addition), single experiment or geometric mean, read-out: Female worm motility inhibition (EC50)): 27.7 µM
EC50 ([2]; Schistosoma mansoni, 0 h, male adult worms, 0 h (immediately after addition), single experiment or geometric mean, read-out: Male worm motility inhibition (EC50)): 10.7 µM
EC50 ([2]; Schistosoma mansoni, 0 h, male, 0 h, individual experiments, read-out: Male worm motility inhibition (EC50), values of independent experiments): 10 µM
EC50 ([2]; Schistosoma mansoni, 24 h, female adult worms, 24 h, single experiment or geometric mean, read-out: Female worm motility inhibition (EC50)): 28.8 µM
EC50 ([2]; Schistosoma mansoni, 24 h, male adult worms, 24 h, single experiment or geometric mean, read-out: Male worm motility inhibition (EC50)): 14.3 µM
EC50 ([2]; Schistosoma mansoni, 24 h, male, 24 h, individual experiments, read-out: Male worm motility inhibition (EC50), values of independent experiments): 10.3 µM
EC50 ([2]; Schistosoma mansoni, 48 h, female adult worms, 48 h, single experiment or geometric mean, read-out: Female worm motility inhibition (EC50)): 29.1 µM
EC50 ([2]; Schistosoma mansoni, 48 h, male adult worms, 48 h, single experiment or geometric mean, read-out: Male worm motility inhibition (EC50)): 15.9 µM
EC50 ([2]; Schistosoma mansoni, 48 h, male, 48 h, individual experiments, read-out: Male worm motility inhibition (EC50), values of independent experiments): 11.6 µM
EC50 ([2]; Schistosoma mansoni, 72 h, female adult worms, 72 h, single experiment or geometric mean, read-out: Female worm motility inhibition (EC50)): 30 µM
EC50 ([2]; Schistosoma mansoni, 72 h, male adult worms, 72 h, single experiment or geometric mean, read-out: Male worm motility inhibition (EC50)): 15.4 µM
EC50 ([2]; Schistosoma mansoni, 72 h, male, 72 h, individual experiments, read-out: Male worm motility inhibition (EC50), values of independent experiments): 11.9 µM
EC50 ([2]; female adult worms, 0 h (immediately after addition), single experiment or geometric mean, read-out: Female worm motility inhibition (EC50)): 27.7 µM
EC50 ([2]; female adult worms, 24 h, single experiment or geometric mean, read-out: Female worm motility inhibition (EC50)): 29 µM
EC50 ([2]; female adult worms, 48 h, single experiment or geometric mean, read-out: Female worm motility inhibition (EC50)): 29 µM
EC50 ([2]; male adult worms, 0 h (immediately after addition), single experiment or geometric mean, read-out: Male worm motility inhibition (EC50)): 11 µM
EC50 ([2]; male adult worms, 24 h, single experiment or geometric mean, read-out: Male worm motility inhibition (EC50)): 14 µM
EC50 ([2]; male adult worms, 48 h, single experiment or geometric mean, read-out: Male worm motility inhibition (EC50)): 16 µM
EC50 ([2]; male adult worms, 72 h, single experiment or geometric mean, read-out: Male worm motility inhibition (EC50)): 15 µM
EC50 ([2]; male, 24 h, individual experiments, read-out: Male worm motility inhibition (EC50), values of independent experiments): 19.8 µM
EC50 ([2]; male, 48 h, individual experiments, read-out: Male worm motility inhibition (EC50), values of independent experiments): 21.7 µM
EC50 ([2]; male, 72 h, individual experiments, read-out: Male worm motility inhibition (EC50), values of independent experiments): 19.9 µM
activation of Fh.TRPMPZQ (Fh.TRPMPZQ): did not activate

From paper PMC12718081 (ACS Infectious Diseases, 2025)
